Test results reported in patent publication US5763413A, “Lewis-associated compound, process for producing the same, and anti-inflammatory” (MECT Corporation, priority 1993, dated 1998).

What was measured:
[1] = Simple acute toxicity test (intravenous injection); assay type: in vivo, male mice of ddY strain; conditions: 50 mg/kg, ddY mice; for Mortality: i.v. (tail vein); for mortality (in words): i.v.
Method: Example of Test 1 (Simple Acute Toxicity Test)
The simple acute toxicity test was carried out by an intravenous injection of compounds of the present invention.
Into the tail vein of male mice of ddY strain weighing 18~20 g which have been kept under the conditions at the temperature of 23°±1° C. and in the humidity of 55 ±7% were injected a solution of the compound of the present invention dissolved in the physiological saline containing the desired dose per 20 g body weighing 0.2 ml. Two dosages of which were 50 mg/kg and 500 mg/kg body weight were used.

[2] = tested on: passive Arthus reaction; experiment: Anti-inflammatory activity test: passive Arthus reaction (Example of Test 2); assay type: in vivo, male guinea pigs of the Hartley strain; conditions: Table 21; 0.1 mg/kg i.v., 30 min before antigen
Method: Example of Test 2 (Anti-inflammatory Activity Test)
Male guinea pigs of the Hartley strain weighing 200~250 g were used.
(2) Experimental Materials
The anti-ovalbumin rabbit serum (PCA titer=1/80,000) and ovalbumin were used as the antiserum and antigen, respectively.
The passive Arthus reaction was performed according to the method of Katayama et al. [Katayama, S. et al., Arzeim-Forsch., 31, 1196 (1981)]. That is, guinea pigs were sensitized by an intravenous injection of said anti-ovalbumin rabbit serum (2.5 ml/kg). Thirty minutes after the injection, the Arthus reaction was induced by the intradermal injection of an antigen solution (0.05 ml) containing 0.10 mg of ovalbumin to the abdomen shaved the day before. Two hours after the antigen challenge, the area of intradermal bleeding was measured and used as the index representing the grade of inflammatory reaction. Test compounds were intravenously injected 30 min before the antigen injection. Four guinea pigs per each group were used.
The percent inhibi- is expressed as the bleeding area of the challenged site (%) of the animal group injected with each compound relative to that (100%) of the group administered with the physiological saline.

[3] = tested on: adhesion of HL-60 cells to HUVEC monolayers (ELAM-1); experiment: Effect on the adhesion of HL-60 cells to HUVEC monolayers mediated by an adhesion molecule; assay type: cell-based, human; conditions: 10 μg/ml final, in lecithin/cholesterol liposome, IL-1β-stimulated HUVEC
Method: (Effect on the Adhesion of Cultured Cells Mediated by a Adhesion Molecule)
(2) Experimental methods and materials
HUVECs (Human umbilical vein endothelial cells: KURABO) were suspended in E-GM UV medium at the concentration of 5×10^3 cells/ml, 100-μl each aliquot thereof was distributed into a 96-well microplate and incubated in a 5% CO2 containing air at 37° C. with the medium being replaced fresh 24 h later. The culture was continued for another 5 days, and the following experiment was performed after the confluent growth of the cells was confirmed.
In order to express ELAM-1 on HUVEC monolayers, IL-1β (IL-1β, Human, Recombinant: Genzym) was added to said culture (final concentration, 10 units/ml) and incubated for 4 h, then the test compound (final concentration, 10 μg/ml) containing liposome prepared with lecithin and cholesterol was added and further incubated or 1 h. Then human promyelocytic leukemia cell line […] which had been cultured was added to said culture at the final concentration of 5×10^5 cells/ml and incubated for 15 min. After washing said culture with the culture medium 3 times to remove the non-adhering HL-60 cells, said culture was gently stirred overnight to strip HL-60 cells adhering to HUVEC monolayers and count. Percent inhibition of adhesion (%) was calculated from the following equation [Margaret, J. et al., Proc. Natl. Acad. Sci. USA, 88, 6224 (1991)]. […]

Row | SMILES | Mortality [1] | mortality (in words) [1] | Percent inhibition (passive Arthus reaction) [2] | Adhesion inhibitory activity [3]
1 | CCCCCCCCCCCCCC=CC(O)C(COC1OC(CO)C(OC2OC(CO)C(O)C(OC3OC(CO)C(OC4OC(CO)C(O)C(OS(=O)(=O)[O-])C4OS(=O)(=O)[O-])C(OC4OC(C)C(O)C(O)C4O)C3NC(C)=O)C2O)C(O)C1O)NC(=O)CCCCCCCCCCCCCCCCCCCCCCC.[Na+].[Na+] (centres unmarked) [Compound 77] | 0/3 | no mortality was observed | 40.4 ± 5.1% | 21.0 ± 15.0%
2 | CCCCCCCCCCCCCC=CC(O)C(COC1OC(CO)C(OC2OC(CO)C(O)C(OC3OC(CO)C(OC4OC(CO)C(O)C(OS(=O)(=O)[O-])C4O)C(OC4OC(C)C(O)C(O)C4O)C3NC(C)=O)C2O)C(O)C1O)NC(=O)CCCCCCCCCCCCCCCCCCCCCCC.[Na+] (centres unmarked) [Compound 78] | 0/3 | no mortality was observed | 32.5 ± 7.3% | 20.7 ± 3.7%
